Several values for one entry are separate records, joined by “and”; a condition that tells them apart may be missing. Equal values may be shown once.
Experiments:
[1] = tested on: desmosine (DES) and isodesmosine (IDES); test: Phase 1b study: plasma desmosine and isodesmosine by isotope-dilution LC/MS; assay type: in vivo, human
Description: (§1) Patients age ≥18 years with BOS and chronic GVHD after HCT were recruited to the National Cancer Institute protocol (NCT02669251). This phase 1 study had 2 parts: 8-week intra-patient dose escalation period, followed by a continuation period that allowed for up to 6 months of treatment. Alvelestat was given orally starting at 60 mg twice daily, increased every 2 weeks to 120 mg twice daily, 180 mg twice daily, and finally 240 mg twice daily.
(§2) Blood biomarkers for neutrophil elastase activity, desmosine, isodesmosine, PRO-C3 and PRO-C6, were collected at baseline (pre-treatment with alvelestat) and after every 2 weeks during alvelestat dose escalations i.e. after 60 mg bid, 120 mg bid, 180 mg bid and 240 mg bid.
DES and IDES levels in the plasma were measured by an isotope-dilution, liquid-chromatography/mass spectrometry method (Huang et al Thorax 2012; 67:502-508).[12] [13]
Results are presented as Mean and Standard Error Mean (SEM). Samples were taken at baseline and at the end of each dose-escalation stage.

[2] = tested on: PRO-C3; test: Phase 1b study: collagen type 3 synthesis biomarker PRO-C3 (and PRO-C3:C3M ratio) by competitive ELISA; assay type: in vivo, human
Description: as §1, §2
(§3) Biomarkers of novel epitopes (neoepitopes) related to collagen turnover and fibrosis (PRO-C6, PRO-C3, C3M, and C6M) were measured by competitive Enzyme Linked Immunosorbant Assay (ELISA) (Nordic Biosciences, Denmark).[1]

[3] = tested on: PRO-C6; test: Phase 1b study: collagen type 6 synthesis biomarker PRO-C6 by competitive ELISA; assay type: in vivo, human; settings: above ULN at baseline; during alvelestat treatment; FIG. 3B
Description: as §1, §2, §3

[4] = Phase 1b study in patients with BOS after HCT: tolerability and clinical outcome; assay type: in vivo
Description: as §1

[5] = tested on: C1M (collagen Type 1); test: 12-week study NCT03636347: collagen degradation biomarker C1M; assay type: in vivo, human; settings: alvelestat at week 12, three treatment arms pooled, N = 32; alpha-1 anti-trypsin deficient lung disease; ANCOVA
Description: (§4) An aspect of NCT03636347 was to investigate the effect of alvelestat on collagen biomarkers in patients with PiZZ, null or rare variant phenotype/genotype alpha-1 anti-trypsin deficient lung disease. % Change from baseline in a number collagen degradation biomarkers were measured over a 12 week period in alvelestat and placebo arms. Inclusion criteria: patients (18 Years to 75 Years) with a confirmed diagnosis of alpha-1-anti-trypsin deficiency and a PiZZ, null or other rare geno/phenotype and serum […] levels of less than 11 uM; FEV1≥20% predicted; Computerised tomography (CT) scan evidence of emphysema; and non-smokers. Alvelestat was given orally at 120 mg twice daily, 240 mg twice daily, or dose escalation up to 240 mg twice daily, so there were three alvelestat treatment arms. Collagen degradation biomarkers […] (collagen Type 1), […] (collagen Type 6), […] (collagen Type 4) C3M (collagen Type 3) were collected at baseline (e.g. before treatment with alvelestat or placebo) and after 12 weeks following treatment with alvelestat or placebo. Biomarkers related to C3M and […] were measured by competitive Enzyme Linked Immunosorbant Assay (ELISA) (Nordic Biosciences, Denmark).[1] Biomarkers related to […] and […] were measured with Nordic Bioscience assays [Chest. […] C1M, […] concentrations were measured in ng/mL. […]

[6] = tested on: C6M (collagen Type 6); test: 12-week study NCT03636347: collagen degradation biomarker C6M; assay type: in vivo, human; settings: alvelestat at week 12, three treatment arms pooled, N = 36; ANCOVA
Description: as §4

[7] = tested on: C4Ma3 (collagen Type 4); test: 12-week study NCT03636347: collagen degradation biomarker C4Ma3; assay type: in vivo, human; settings: alvelestat at week 12, three treatment arms pooled, N = 17; ANCOVA
Description: as §4

[8] = tested on: C3M (collagen Type 3); test: 12-week study NCT03636347: collagen degradation biomarker C3M; assay type: in vivo, human; settings: alvelestat at week 12, three treatment arms pooled, N = 34; ANCOVA
Description: as §4

[9] = molecular target: T1, Neutrophil Elastase (NE) (Homo sapiens, UniProt P08246); settings: from WO2021/053058, Examples 1-5; cited from earlier work
T1 sequence (P08246 30-267): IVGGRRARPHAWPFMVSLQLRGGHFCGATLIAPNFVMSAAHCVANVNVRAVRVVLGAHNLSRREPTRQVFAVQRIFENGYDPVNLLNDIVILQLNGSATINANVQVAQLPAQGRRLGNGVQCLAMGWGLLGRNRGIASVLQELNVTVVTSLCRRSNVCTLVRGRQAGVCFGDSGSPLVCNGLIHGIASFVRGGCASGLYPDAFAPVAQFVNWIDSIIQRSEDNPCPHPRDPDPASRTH

[10] = from WO2021/053058, Examples 1-5; cited from earlier work
[11] = molecular target: T1, Neutrophil Elastase (NE); test: Phase 1b study: ex-vivo zymosan-stimulated neutrophil elastase activity in whole blood; set-up: induce degranulation of white blood cells including neutrophils, releasing an excess of free active NE into the plasma; from tissue; host or cells: whole blood of patients (neutrophils degranulated with zymosan); plasma measured with ProteaseTag Active Neutrophil Elastase Immunoassay (ProAxsis Ltd); settings: FIG. 2
Description: Patients age ≥18 years with BOS and chronic GVHD after HCT were recruited to the National Cancer Institute protocol (NCT02669251). […] Alvelestat was given orally starting at 60 mg twice daily, increased every 2 weeks to 120 mg twice daily, 180 mg twice daily, and finally 240 mg twice daily.
as §2
Ex-vivo zymosan-stimulated Neutrophil Elastase (NE) activity was measured by the following assay: zymosan was added to whole blood to induce degranulation of white blood cells including neutrophils, releasing an excess of free active NE into the plasma. The blood was centrifuged and plasma removed. The level of NE in the plasma sample was measured by the ProteaseTag® Active Neutrophil Elastase Immunoassay (ProAxsis Ltd, Belfast, Northern Ireland).

Cc1c(-c2ccnn2C)cc(C(=O)NCc2ccc(S(C)(=O)=O)cn2)c(=O)n1-c1cccc(C(F)(F)F)c1 [alvelestat, N-{[5-(methanesulfonyl)pyridin-2-yl]methyl}-6-methyl-5-(1-methyl-1H-pyrazol-5-yl)-2-oxo-1-[3-(trifluoromethyl)phenyl]-1,2-dihydropyridine-3-carboxamide]
DES and IDES plasma level, mean (SEM) ([1]; patients with BOS after HCT, N=7, week 8 of dose escalation 60 to 240 mg twice daily oral, baseline 0.464): 0.380 (SEM 0.0419) ng/ml | DES and IDES mean within subject % change from baseline (CFB) ([1]; week 8 of dose escalation, SEM 6.794, FIG. 1): −16.2% | Collagen synthesis as measured by PRO-C3 ([2]; above ULN at baseline, during alvelestat treatment, FIG. 3A): declined | Ratio of PRO-C3 to C3M ([2]; blood samples during the study, n=7, FIG. 4): decrease | Collagen synthesis as measured by PRO-C6 [3]: declined | Tolerability of dose escalation ([4]; all 7 patients, up to maximum dose 240 mg twice daily): able to tolerate dose escalation | Lung disease outcome (FEV1% predicted at end of treatment no worse than 10% below baseline level) ([4]; the 6 patients with biomarker suppression): improved or stable lung disease | Patients with consistent suppressive effect on biomarkers of elastase activity and collagen turnover ([4]; treated patients, phase 1b): 6 of 7 | C1M change from baseline (%), LS Means (SE) [5]: −0.6% and −0.6 (49.42) % | C6M change from baseline (%), LS Means (SE) [6]: 1.1% and 1.1 (5.52) % | C4Ma3 change from baseline (%), LS Means (SE) [7]: −6.6 (8.96) % | C3M change from baseline (%), LS Means (SE) [8]: −1.7 (4.08) % | Inhibition of neutrophil elastase (NE) [9]: potent and specific inhibitor | Effect against GVHD [10]: protective effect | Ex vivo zymosan stimulated elastase activity, course ([11]; over the dose escalation period, N=7): progressive decrease | Suppression of ex vivo zymosan stimulated elastase activity ([11]; some subjects, dose escalation period): 100%

— patent US20240382472A1, “NEUTROPHIL ELASTASE INHIBITORS FOR USE IN THE TREATMENT OF FIBROSIS” (MEREO BIOPHARMA 4 LIMITED, priority 2021, published 2024)
